Paper PMC8313282 (Microbial Biotechnology, 2021)

Biological target: T1, YHR112C (Saccharomyces cerevisiae, UniProt P38716)
T1 sequence (P38716 1-378): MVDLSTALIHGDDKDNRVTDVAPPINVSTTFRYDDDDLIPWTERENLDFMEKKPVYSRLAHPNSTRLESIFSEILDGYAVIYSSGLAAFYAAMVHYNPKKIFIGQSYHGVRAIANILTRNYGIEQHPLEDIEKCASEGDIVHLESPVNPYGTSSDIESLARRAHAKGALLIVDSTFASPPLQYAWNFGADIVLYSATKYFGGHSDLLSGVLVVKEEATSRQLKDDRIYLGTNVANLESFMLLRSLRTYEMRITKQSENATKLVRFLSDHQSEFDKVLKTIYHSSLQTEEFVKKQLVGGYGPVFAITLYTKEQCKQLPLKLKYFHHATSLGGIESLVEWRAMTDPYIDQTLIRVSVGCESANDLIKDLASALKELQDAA
Test: HPLC of L-Met depletion and alpha-ketobutyrate
Assay type: biochemical
Settings: 50 mM Tris-HCl pH 8.0; 20 mM L-Met; 5 μM PLP; 30°C; 1 h; weak activity

How did the “HPLC of L-Met depletion and alpha-ketobutyrate” value turn out when `CSCC[C@H](N)C(=O)O` [L‐Met] was run?
The value was “while weak changes were observed for YHR112C”.
